Like-named read-outs stand apart in the source and are kept apart here.
Key:
[1] = tested on: Aβ production in Chinese hamster ovary cells that over-express human APP695 with the London and Swedish mutations; experiment: Cellular Aβ IC50 determination (Aβ40 sandwich ELISA); type: cell-based; settings: Cricetulus griseus
Outline: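 Aβ40 in media quantified by sandwich ELISA, normalized to control incubations and fitted with a 4-parameter IC50 model. Compounds dosed to a final concentration near 4 μM (0.4% DMSO) on CHO cells expressing human APP695 (London and Swedish mutants) seeded at 10% confluency.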

memapsin 2 = memapsin 2 (Homo sapiens, UniProt P56817); experiment: Inhibition of memapsin 2 beta-secretase activity (fluorogenic substrate FS-2); type: biochemical; settings: memapsin 2, pH 4, 37° C., 20 minutes pre-incubation; read-out: M2Ki
Chain of memapsin 2 (P56817 46-501): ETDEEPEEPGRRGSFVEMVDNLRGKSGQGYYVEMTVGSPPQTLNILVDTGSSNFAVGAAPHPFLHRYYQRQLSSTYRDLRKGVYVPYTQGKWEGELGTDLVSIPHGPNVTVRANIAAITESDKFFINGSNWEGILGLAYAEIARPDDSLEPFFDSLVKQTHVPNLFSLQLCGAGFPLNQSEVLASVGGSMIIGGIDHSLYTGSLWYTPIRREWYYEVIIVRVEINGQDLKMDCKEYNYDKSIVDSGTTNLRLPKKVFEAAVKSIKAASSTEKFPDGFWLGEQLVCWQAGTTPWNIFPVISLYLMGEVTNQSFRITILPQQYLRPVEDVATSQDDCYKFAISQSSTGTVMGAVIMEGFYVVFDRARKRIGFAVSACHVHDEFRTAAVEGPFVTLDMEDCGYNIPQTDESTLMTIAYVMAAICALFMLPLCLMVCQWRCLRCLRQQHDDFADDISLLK
Outline: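 Kinetic fluorogenic assay: hydrolysis of the MCA/DNP-labelled APP Swedish-variant peptide FS-2 monitored as fluorescence rise at 37° C, pH 4, after 20 min enzyme–compound preincubation. Relative rates fitted with a tight-binding inhibitor model.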

[2] = cellular Aβ production, read-out: IC50

Structure (SMILES)	IC50 [1, 2] [nM]	Ki (memapsin 2) [nM]	IC50 [1] [nM]
Cc1csc(CN(C)C(=O)c2cc(C(=O)N[C@@H](Cc3ccccc3)[C@H](O)CNCc3cncc(C(C)C)c3)cc(N3CCCC3=O)c2)n1 [Compound 195, N1-((2S,3R)-3-hydroxy-4-((5-isopropylpyridin-3-yl)methylamino)-1-phenylbutan-2-yl)-N3-methyl-N3-((4-methylthiazol-2-yl)methyl)-5-(2-oxopyrrolidin-1-yl)isophthalamide]	< 1000	< 300	–
Cc1csc(CNC(=O)c2cc(C(=O)N[C@@H](Cc3ccccc3)[C@H](O)CNCc3cncc(C(C)C)c3)cc(-c3ncco3)c2)n1 [Compound 197, N1-((2S,3R)-3-hydroxy-4-((5-isopropylpyridin-3-yl)methylamino)-1-phenylbutan-2-yl)-N3-((4-methylthiazol-2-yl)methyl)-5-(oxazol-2-yl)isophthalamide]	< 1000	< 300	–
Cc1csc(CN(C)C(=O)c2cccc(C(=O)N[C@@H](Cc3ccccc3)[C@H](O)CNCc3cc(OC(=O)N(C)C)cc(C(C)C)c3)c2)n1 [Compound 198, 3-(((2R,3S)-2-hydroxy-3-(3-(methyl((4-methylthiazol-2-yl)methyl)carbamoyl)benzamido)-4-phenylbutylamino)methyl)-5-isopropylphenyl dimethylcarbamate]	–	< 300	< 1000
Cc1csc(CN(C)C(=O)c2cc(C(=O)N[C@@H](Cc3ccccc3)[C@H](O)CNCc3cncc(C(C)C)c3)cc(-c3cccnc3)c2)n1 [Compound 200, N1-((2S,3R)-3-hydroxy-4-((5-isopropylpyridin-3-yl)methylamino)-1-phenylbutan-2-yl)-N3-methyl-N3-((4-methylthiazol-2-yl)methyl)-5-(pyridin-3-yl)isophthalamide]	< 1000	< 300	–

Now from value to molecule, other results behind:

IC50 [1, 2] [nM]	Ki (memapsin 2) [nM]	Structure (SMILES)	IC50 [1] [nM]
< 1000	< 300	CC(=O)Nc1cc(CNC[C@@H](O)[C@H](Cc2ccccc2)NC(=O)c2cccc(C(=O)N(C)Cc3nc(C)cs3)c2)cc(C(C)C)c1 [Compound 193, N1-((2S,3R)-4-(3-acetamido-5-isopropylbenzylamino)-3-hydroxy-1-phenylbutan-2-yl)-N3-methyl-N3-((4-methylthiazol-2-yl)methyl)isophthalamide]	–
< 1000	< 300	COc1cccc(CNC[C@@H](O)[C@H](Cc2ccccc2)NC(=O)c2cc(C(=O)N(C)Cc3nc(C)cs3)cc(N3CCCC3=O)c2)c1 [Compound 194, N1-((2S,3R)-3-hydroxy-4-(3-methoxybenzylamino)-1-phenylbutan-2-yl)-N3-methyl-N3-((4-methylthiazol-2-yl)methyl)-5-(2-oxopyrrolidin-1-yl)isophthalamide]	–
< 1000	< 300	Cc1csc(CN(C)C(=O)c2cccc(C(=O)N[C@@H](Cc3ccccc3)[C@H](O)CNCc3cc(-c4ccccc4)on3)c2)n1 [Compound 196, N1-((2S,3R)-3-hydroxy-1-phenyl-4-((5-phenylisoxazol-3-yl)methylamino)butan-2-yl)-N3-methyl-N3-((4-methylthiazol-2-yl)methyl)isophthalamide]	–
> 5000	> 501	COc1cccc(CNC[C@@H](O)[C@H](Cc2ccccc2)NC(=O)c2cc(C(=O)NCc3nc(C)cs3)cc(N3CCCC3=O)c2)c1 [Compound 199, N1-((2S,3R)-3-hydroxy-4-(3-methoxybenzylamino)-1-phenylbutan-2-yl)-N3-((4-methylthiazol-2-yl)methyl)-5-(2-oxopyrrolidin-1-yl)isophthalamide]	–
< 1000	< 300	COc1cccc([C@@H](C)NC[C@@H](O)[C@H](Cc2ccccc2)NC(=O)c2cc(C(=O)N[C@H](C)c3ccccc3)cc(N(C)S(C)(=O)=O)c2)c1 [Compound 201, N1-((2S,3R)-3-hydroxy-4-((R)-1-(3-methoxyphenyl)ethylamino)-1-phenylbutan-2-yl)-5-(N-methylmethylsulfonamido)-N3-((R)-1-phenylethyl)isophthalamide]	–
